For 88 molecules, melting point results are on record in a melting point compilation (Tetko et al.; mined from patent text by program, amines drawn as free bases though some values may be those of a salt).

A value given as a limit tells only on which side of the number the result lay.

Consider `Clc1c(NC2=NCCN2)ccc2nsnc12`, for which the melting point (commonly the temperature of the solid-liquid transition) lay within 232 to 235 °C. In turn, `O=C(O)c1cccc(-n2cc(-c3ccccc3F)cn2)c1` registered a melting point of 225 to 226 °C. Under `CN1C(=O)N(CC2=C(CC3CCCC3)C(=O)OC2)C(=O)C1(C)C` stands 77 to 79 °C; under `O=C(Sc1ccccn1)c1ccc(Br)cc1`, 69 to 70 °C. Next, `CN(CCc1ccc([N+](=O)[O-])cc1)C1Cc2ccc([N+](=O)[O-])cc2C1` (stereo not drawn): 138 to 141 °C; `CCCCCCCCCCOc1ccc(-c2ccc(OCc3ccccc3)c(F)c2)cc1F`: 95.8 to 98.6 °C; `CCCc1cc2c(cc1CC#N)OCO2`: 66 to 67 °C.

Molecule `COc1cc(O)nc2cc(-c3cc(C)c(O)c(C)c3)[nH]c(=O)c12` registered a melting point above 330 °C. For the molecule `N#Cc1cc(C(N)=O)ccc1Cl`, the melting point is 193 °C. As for `COc1cc(C(C)=O)ccc1OC/C=C/CN1CCC(c2noc3cc(F)ccc23)CC1`, the melting point was in the range of 57 to 59 °C. Next, `O=C(c1ccc(Cl)cc1)c1ccc2[nH]c(=O)cc(C(=O)O)c2c1`: above 260 °C; `CC(=O)c1ccn2c(C)c(C)nc2c1N`: 195 to 197 °C.

Regarding `COc1ccc(C(CCc2ccccc2)C(=O)O)cc1` (stereo not drawn), the melting point lay in the range of 92 to 97 °C. For the molecule `CC(C)c1cc2nc(N)sc2cc1Sc1ccc(CCc2ccc(F)cc2)c(CCC2=C(O)CC(C(C)C)OC2=O)c1` (stereo not drawn), the melting point is 204 to 206 °C. Next, `COCCOCc1c(CN(C)CC(O)c2cccc(OC)c2)sc2c(=O)c(C(=O)NCc3ccc(Cl)cc3)cn(C)c12` (stereo not drawn): 135 to 138 °C; `CCC(=O)c1cc(C#N)c(=O)[nH]c1C`: 259 to 263 °C. `N#CNC(=NCCO[N+](=O)[O-])c1cncc(N)c1`: the melting point was 121 °C. Under `Cc1nc(Cc2ccccc2)c2c(c1O)COC2` stands 212 to 214 °C; under `CC(C)(C)OC(=O)CN(CBr)C(=O)c1ccccc1`, 98 to 102 °C; under `O=C(Cc1ccc(C(F)(F)F)cc1)c1ccccc1`, 143 to 144 °C. `C(=C\c1cc(/C=C/c2c[nH]c3ccccc23)n[nH]1)/c1ccc(OCc2ccccn2)cc1` returned a melting point of 196 to 199 °C. On to `CCCCCCCCCCCCCCOC(=O)OC1CC(C)(C)N(C)C(C)(C)C1`, for which the melting point is 32 to 34 °C. Next, `CCCCOc1nc(N)c2[nH]c(=O)n(CCCCN(CC(C)(C)O)S(=O)(=O)c3cccc(CC(=O)OC)c3)c2n1`: 192 to 193 °C. Next, `CCOC(=O)c1cccc2c(=O)c(C)c(-c3ccc(OC)cc3)oc12`: 137 to 139 °C; `COc1ccc(C(=O)c2cccnc2)cc1[N+](=O)[O-]`: 86 to 88 °C; `O=C(Nc1n[nH]c(=S)s1)N[C@@H](Cc1ccccc1)C(=O)N1CCOCC1`: 213 to 216 °C. Next, `c1ccc(CN2CCC(NC3CCOCC3)CC2)cc1`: 60 °C. Molecule `Nc1cc(-c2ccncc2)n[nH]c1=O` gave a melting point above 300 °C. Under `Cc1cc(-c2ccc(C(F)(F)F)c(C)c2)nc(-c2cccc(-c3cccc(S(N)(=O)=O)c3)c2)n1` stands 222 °C; under `COC1C(O)C(CO)OC1n1cc(C)c(=O)[nH]c1=O` (stereo not drawn), 192 to 193 °C. Next, `Cc1nc(C)c(N2N=C(c3ccc([N+](=O)[O-])cc3)c3cc4c(cc3CC2C)OCO4)o1` (stereo not drawn): 76 to 78 °C. Turning to `CCN(CC(F)(F)F)c1cccc([N+](=O)[O-])c1`, the melting point worked out at 66 °C. Next, `Cc1oc(-c2ccccc2)nc1COc1ccc(CCc2oc(-c3ccccc3)nc2CCC(=O)O)cc1`: 110 to 111 °C; `Cc1c(C(=O)Nc2ccc(Cl)c([N+](=O)[O-])c2)cnn1-c1ccc(C(F)(F)F)cc1`: 206 to 208 °C; `Cc1ccc(C(=O)n2c3c(c4ccccc42)CC(C(=O)O)CC3)cc1` (stereo not drawn): 210 to 212 °C. Next, `CC1=C2C(=O)N(O)C(=O)c3cccc(c32)C(=NO)C1O` (stereo not drawn): 302 to 304 °C; `Cc1cccc(-c2[nH]c(C(C)C)nc2-c2cccc(-c3ccc(S(N)(=O)=O)cc3F)c2)n1`: 246 to 248 °C.

Molecule `N=C(N)Nc1nc(CSCCC2=NS(=O)(=O)NC(N)=N2)cs1` yielded a melting point of 175 to 192 °C. Under `CNc1ccc(C=CC(=O)c2ccc(NC)cc2)cc1` stands 150 to 151 °C; under `N#Cc1ncn2c(C(F)(F)F)cc(-c3ccc(Cl)cc3Cl)nc12`, 139 °C.

`Cc1cn(-c2nccc3ccccc23)cc1C(=O)O`: the melting point turned out to be 245 °C. Under `CCCCCCCCCCNC(=O)c1ccccc1N` stands 72 to 74 °C; under `CC(C)(C)c1cc(C=C(C#N)C(N)=S)cc(C(C)(C)C)c1`, 172 to 174 °C; under `CCn1c(C)c(C(=O)c2ccccc2)c(N=Cc2ccccc2)c1-c1ccccc1`, 147 to 148 °C. Under `CCOc1ccc(-c2cc(C(F)(F)F)n3ncc(-c4ccnc(C)c4)c3n2)cc1C(F)(F)F` stands 250 °C; under `CC(=O)OCCc1ccc(NC(=O)OCc2ccccc2)cc1`, 148 to 149 °C. Next, `CC(C)n1nc(-c2sc(NC(=O)c3ccc(Cn4ccnc4)cc3)nc2-c2ccccc2)ccc1=O`: above 250 °C; `Brc1c[nH]nc1-c1ccccc1`: 114 to 116 °C; `O=C(O)Cc1n[nH]c2c(=O)[nH]c3cc(Cl)ccc3c(=O)c12`: 297 to 300 °C.

`COc1cc(C2Cc3ccccc3-c3nc(N)c4ccccc4c32)cc(OC)c1OC` (stereo not drawn) gave a melting point of 272 °C.

In turn, `CC(O)c1ccc(C2CCCCC2)cc1` (stereo not drawn) came in with a melting point of 81.5 to 82.5 °C. Under `CC(C#Cc1ccc2c(c1)CCN(Cc1ccc(-c3ccc(F)cc3)cn1)C2=O)N(O)C(N)=O` (stereo not drawn) stands 118 to 120 °C.

On to `COCn1ncc2cc(Cl)c(NC(=O)c3cc(C(F)(F)F)nn3-c3ncccc3Cl)c(C(=O)NC(C)C)c21`, for which the melting point fell in the range of 180 to 182 °C.

`NS(=O)(=O)c1ccc(N2N=C(C(F)(F)F)CC2c2ccccc2)cc1` (stereo not drawn) yielded a melting point of 132 to 135 °C. Under `CN(C[PH](=O)O)c1cc(Oc2ccc(C(F)(F)F)cc2Cl)ccc1[N+](=O)[O-]` stands 153 to 154 °C; under `c1ccc2c(c1)nc1n2CCCC1`, 104 to 106 °C; under `COc1nc(C)nc(NC(=O)NS(=O)(=O)c2ccccc2Cc2nnc(SC)s2)n1`, 140 to 146 °C.

On to `Cc1cc(C)c(C)c(C(=O)CCl)c1C`, for which the melting point came to 65.5 °C.

Molecule `CCNc1nc(OCc2ccccc2)nc2c1ncn2C1OC(CO)C(O)C1O` (stereo not drawn) displayed a melting point of 170 to 171 °C. Under `CCOC(OCC)c1cc(NC(c2ccccc2)(c2ccccc2)c2ccccc2)c(F)c(-c2ccc(C(F)(F)F)nc2)n1` stands 58 to 60 °C. Under `CCC(=O)Nc1ccc(C2=NN(C(=O)CC)C(C)Cc3cc4c(cc32)OCO4)cc1` (stereo not drawn) stands 152 to 154 °C. The molecule `CCOC(=O)CCCOc1nn2c(-c3ccc(OC)cc3)nnc2c2ccccc12` came in with a melting point of 114 to 117 °C. Under `CC1(C)Oc2ccc(S(=O)(=O)C(F)(F)F)cc2[C@@H](N2Cc3ccccc3C2=O)[C@@H]1O` (relative stereo) stands 279 to 281 °C; under `CCC(=O)Oc1cc(-c2nc3cc(C(=O)O)ccc3oc2=O)cc([N+](=O)[O-])c1OC(=O)CC`, 192 to 194 °C; under `O=c1cc(C(F)(F)F)nc(Cl)n1-c1cc(Oc2ccccc2[N+](=O)[O-])c(Cl)cc1F`, 128 to 131 °C. `N=C(N)NCCc1ccc(OCCC2Oc3ccccc3N(Cc3ccc4ccccc4c3)C2=O)cc1` (stereo not drawn): the melting point was 173 to 178 °C.

`O=C(CC(Cc1cccc2ccccc12)C(=O)O)NCCc1c[nH]c2ccccc12` (stereo not drawn) yielded a melting point of 73 to 75 °C. The molecule `COC(=O)c1ccc(-c2nc(-c3ccc(C(F)(F)F)cc3)cs2)cc1` registered a melting point of 156 to 158 °C. Next, `CSc1ccc(-c2[nH]c3cccc4c3c2CCNC4=O)cc1`: 250 to 251 °C; `C1=C(c2ccccc2)CCN(CC2CCC=C(c3ccccc3)C2)C1` (stereo not drawn): 94 to 100 °C.

For `O=C(O)c1cccc(-c2nc3cc(N4CCCC4)ccc3o2)c1`, the melting point fell in the range of 248 to 250 °C.

In turn, `Cc1c(Sc2ccc(Cl)cc2)nn(-c2cccc(Cl)c2)c(=O)c1C#N` returned a melting point of 150 to 151 °C. Under `COC(=O)c1ccc(Cc2c(C)[nH]c(C)cc2=O)cc1` stands 226 to 228 °C; under `Cc1c(C(=O)Nc2ccc(N3CCC(N4CCOCC4)CC3)c(Br)c2)cnn1-c1ccc(C(F)(F)F)cc1`, 220 to 230 °C; under `Cc1ccc(-c2ccc(C(=O)Nc3ccc4nc(CN5C(C)(C)CCCC5(C)C)ccc4c3)cc2)cc1`, 242 to 243 °C.

Molecule `O=C(NN1CCOCC1)c1ccc(O)c(Br)c1` displayed a melting point of 216 to 218 °C. Take `O=C(Nc1ccccc1)OCC1(COC(=O)Nc2ccccc2)CS(=O)c2ccccc2C1=O` (stereo not drawn): the melting point fell in the range of 220 to 222 °C.

`O=C1OC(CN2CCC3(CC2)C(=O)NCN3c2ccccc2)CN1c1ccccc1` (stereo not drawn) registered a melting point of 166 to 168 °C. Next, `Nc1nc(N2CCNCC2)c2nc(-c3ccccc3)c(N)nc2n1`: 150 to 155 °C; `CN1C(=O)Cc2c(sc3ccccc23)S1(=O)=O`: 175 to 178 °C. Next, `CCOC(=O)c1c[nH]c(Br)c1-c1cccc(F)c1`: 114 to 117 °C; `O=Cc1ccc(-c2ccc(Br)cn2)cc1`: 120 to 121 °C. Under `CC12CC3(C)CC(CO)(C1)CC(CO)(C2)C3` stands 158 to 161 °C; under `CC(O)Cn1cncn1` (stereo not drawn), 110 to 112 °C. `O=C(NCCO)c1cccc(-c2cccc3oc(Cc4cccc(C(F)(F)F)c4)nc23)c1` gave a melting point of 132 to 133 °C. Under `Clc1cc(CCc2ccccn2)c2oc(-c3ccsc3)nc2c1` stands 126 to 127 °C. Under `COC1OC(=O)c2c(O)cccc21` (stereo not drawn) stands 77 to 79 °C; under `CCC(=O)CCc1ccc(OC)c(S(N)(=O)=O)c1`, 135 to 138 °C.
